The results in this text go back to patent US4479954A, “Piperazine substituted carboxamide derivatives, compositions and method of use” (Eisai Co., Ltd., priority 1981, dated 1984).

One data set has as its system sub-diabetic rats. The experiment in a line: Improvement of glucose tolerance in STZ sub-diabetic rats (Experiment 1). It counts as in vivo, Male Sprague-Dawley rats. As to conditions: for Improvement of glucose tolerance at 10 mg/kg / inhibition in vivo at 10 mg/kg: Rattus norvegicus; for Improvement of glucose tolerance at 10 mg/kg: po; for inhibition in vivo at 10 mg/kg: 10 mg/kg oral, STZ sub-diabetic rats, relative to control group as 100%.

The next data set has as its system DDY strain mice. The experiment in a line: Acute Toxicity Test, oral, mice (Experiment 2). It counts as in vivo. As to conditions: observation within one week; for Acute toxicity, number of dead cases / number of cases tested, 500 mg/kg: 500 mg/kg oral; for Acute toxicity, number of dead cases / number of cases tested, 1,000 mg/kg: 1,000 mg/kg oral. On the procedure: More specifically, when an experiment was carried out in DDY strain mice, there was no case of death at a dosage of 1,000 mg/kg, as shown below.
DDY strain mice (weighing 20-25 g) maintained on mice chow and water adlibitum in a constant temperature room (22°-24° C.) for at least a week were used.
An acute toxicity test was carried out by oral administration of the compounds at two dosage levels of 500 mg/kg and 1,000 mg/kg. Observation of dead cases were made within one week. In table 2, the denominator of each value indicates the number of cases tested and the numerator indicates the number of dead cases. Compounds A, B, C, D, E and F correspond to Compoounds A-F in Experiment 1 respectively.

Where [1] appears, read: 1 h, read-out: Improvement percent of glucose tolerance, 1 hr.
[2] abbreviates: 2 h, read-out: Improvement percent of glucose tolerance, 2 hrs.
[3] abbreviates: 3 h, read-out: Improvement percent of glucose tolerance, 3 hrs.
The mark [4] stands for this setting: 1 hr. after glucose load (3 g/kg i.p.), read-out: Improvement percent of glucose tolerance, 1 hr.
The mark [5] stands for this setting: 2 hrs. after glucose load (3 g/kg i.p.), read-out: Improvement percent of glucose tolerance, 2 hrs.
[6] abbreviates: 3 hrs. after glucose load (3 g/kg i.p.), read-out: Improvement percent of glucose tolerance, 3 hrs.

Molecules are shown by their SMILES. Where a name gives a salt, the structure may show the parent alone. Read-outs that look alike come from different tables or passages of the source.

Experimental for sub-diabetic rats: Male Sprague-Dawley rats (weighing 300-350 g) were maintained on rat chow and water adlibitum in a constant temperature room (22°-24° C.) for at least a week prior to use in studies. Sub-diabetic rats*^1 were obtained by intrevenous injection of 20 mg/kg of streptozotocin (STZ). The compounds were orally administered in 5% gum arabic suspension in sub-diabetic rats. 3 g/kg of glucose was administered intraperitoneally an hour later. Blood samples were taken from the tail vein, and the blood sugar was measured by the anthrone method [Ui.
*1: STZ sub-diabetic rats are obtained by administering a low dose of streptozotocin (20 mg/kg) dissolved in physiological saline containing 1 mM citrate buffer (pH 4.5) into the superficial cutaneous vein.
*^2 The improvement percent of glucose tolerance means a percentage o
blood sugar of the group treated with the test compounds each after
glucose load (1, 2 and 3 hours after) relative to that of the control

Regarding `CCCCCC/C=C/C(=O)OC(CN1CCN(c2ccccn2)CC1)CN1C(=O)[C@H]2CC=CC[C@H]2C1=O.O=C(O)/C=C\C(=O)O.O=C(O)/C=C\C(=O)O` (relative stereo) [Compound D, N-[2-(trans-2-Nonenoyloxy)-3-{4-(2-pyridyl)piperazin-1-yl}propyl]cis-cyclohex-4-ene-1,2-dicarboximide dimaleate], the Improvement of glucose tolerance at 10 mg/kg in the data set with sub-diabetic rats (setting [1]) worked out at 0%; with sub-diabetic rats (setting [2]) it was 13%; in the data set on sub-diabetic rats (setting [3]), 26%. In the data set on DDY strain mice, the “Acute toxicity, number of dead cases / number of cases tested, 500 mg/kg” value was 0/5. For the same compound, the “Acute toxicity, number of dead cases / number of cases tested, 1,000 mg/kg” value with DDY strain mice is given as 0/5.
Turning to `O=C(O)/C=C\C(=O)O.O=C(OC(CN1CCN(c2ccccn2)CC1)CN1C(=O)[C@H]2CC=CC[C@H]2C1=O)c1cccnc1` (relative stereo) [Compound E, N-[2-Nicotinoyloxy-3-{4-(2-pyridyl)piperazin-1-yl}propyl]cis-cyclohex-4-ene-1,2-dicarboximide maleate], the Improvement of glucose tolerance at 10 mg/kg in the data set on sub-diabetic rats (setting [1]) stood at 11%; in the data set on sub-diabetic rats (setting [2]), 20%; with sub-diabetic rats (setting [3]), 9%. Also, the “Acute toxicity, number of dead cases / number of cases tested, 500 mg/kg” value in the data set on DDY strain mice is given as 0/5. Further, the “Acute toxicity, number of dead cases / number of cases tested, 1,000 mg/kg” value in the data set with DDY strain mice is listed as 0/5.
In the case of `CCCCCCCCCCCCCCCC(=O)OC(CN1CCN(c2ccccn2)CC1)CN1C(=O)[C@H]2CC=CC[C@H]2C1=O` (relative stereo) [Compound G, N-[2-Palmitoyloxy-3-{4-(2-pyridyl)piperazin-1-yl}propyl]cis-cyclohex-4-ene-1,2-dicarboximide dimaleate], the values for the inhibition in vivo at 10 mg/kg in the data set on sub-diabetic rats (setting [4]), in the data set with sub-diabetic rats (setting [5]) and in the data set with sub-diabetic rats (setting [6]) were 3%, 15% and 24%, respectively.
With `O=C(O)/C=C\C(=O)O.O=C(OC(CN1CCN(c2ccccn2)CC1)CN1C(=O)CCC1=O)C1CCCCC1` (stereo not drawn) [Compound A, N-[2-Cyclohexylcarbonyloxy-3-{4-(2-pyridyl)piperazin-1-yl}propyl]succinimide maleate], the Improvement of glucose tolerance at 10 mg/kg was determined as 12% in the data set with sub-diabetic rats (setting [1]), 25% in the data set on sub-diabetic rats (setting [2]) and 19% in the data set on sub-diabetic rats (setting [3]). In addition, the “Acute toxicity, number of dead cases / number of cases tested, 500 mg/kg” value in the data set on DDY strain mice is listed as 0/5. The “Acute toxicity, number of dead cases / number of cases tested, 1,000 mg/kg” value in the data set on DDY strain mice was 0/5.
In the case of `CCCCCCCCCC(=O)OC(CN1CCN(c2ccccn2)CC1)CN1C(=O)C2CC=CCC2C1=O` (stereo not drawn) [Compound B, N-[2-n-Decanoyloxy-3-{4-(2-pyridyl)piperazin-1-yl}propyl]cis-cyclohex-4-ene-1,2-dicarboximide dimaleater], the values for the inhibition in vivo at 10 mg/kg in the data set on sub-diabetic rats (setting [4]), with sub-diabetic rats (setting [5]) and in the data set on sub-diabetic rats (setting [6]) were 15%, 23% and 26%, respectively. The “Acute toxicity, number of dead cases / number of cases tested, 500 mg/kg” value in the data set on DDY strain mice is recorded as 0/5. Besides, in the data set with DDY strain mice, the “Acute toxicity, number of dead cases / number of cases tested, 1,000 mg/kg” value is on record as 0/5.
As to `CCCCCC(=O)OC(CN1CCN(c2ccccn2)CC1)CN1C(=O)C2CC=CCC2C1=O` (stereo not drawn) [Compound C, N-[2-n-Caproyloxy-3-{4-(2-pyridyl)piperazin-1-yl}propyl]cis-cyclohex-4-ene-1,2-dicarboximide dimaleate], the inhibition in vivo at 10 mg/kg in the data set on sub-diabetic rats (setting [4]) worked out at 7%; in the data set on sub-diabetic rats (setting [5]), 17%; in the data set on sub-diabetic rats (setting [6]), 23%. For the same compound, the “Acute toxicity, number of dead cases / number of cases tested, 500 mg/kg” value with DDY strain mice is recorded as 0/5. The “Acute toxicity, number of dead cases / number of cases tested, 1,000 mg/kg” value in the data set with DDY strain mice is recorded as 0/5.
For `O=C(OC(CN1CCN(c2ccccn2)CC1)CN1C(=O)[C@@H]2[C@H](C1=O)[C@@H]1C=C[C@H]2C1)C1CCCCC1` (stereo partly drawn) [Compound F, N-[2-Cyclohexylcarbonyloxy-3-{4-(2-pyridyl)piperazin-1-yl}propyl]endo-cis-bicyclo[2,2,1]hept-5-ene-2,3-dicarboximide dimaleate], the inhibition in vivo at 10 mg/kg is 14% in the data set with sub-diabetic rats (setting [4]), 25% with sub-diabetic rats (setting [5]) and 34% with sub-diabetic rats (setting [6]). In addition, the “Acute toxicity, number of dead cases / number of cases tested, 500 mg/kg” value in the data set on DDY strain mice is 0/5. Moreover, the “Acute toxicity, number of dead cases / number of cases tested, 1,000 mg/kg” value in the data set on DDY strain mice is on record as 0/5.
As for `O=C(OC(CN1CCN(c2ccccn2)CC1)CN1C(=O)c2ccccc2C1=O)c1cccnc1` (stereo not drawn) [Compound H, N-[2-Nicotinoyloxy-3-{4-(2-pyridyl)piperazin-1-yl}propyl]phthalimide maleate], the inhibition in vivo at 10 mg/kg with sub-diabetic rats (setting [4]) turned out to be 19%; in the data set with sub-diabetic rats (setting [5]), 23%; with sub-diabetic rats (setting [6]), 27%.
The corresponding values for `CCC(=O)OC(CN1CCN(c2ccccn2)CC1)CN1C(=O)c2ccccc2C1=O` (stereo not drawn) [Compound I, N-[2-Propionyloxy-3-{4-(2-pyridyl)piperazin-1-yl}propyl]phthalimide maleate] are 14%, 26% and 31%.
The like results for `CCCCCC(=O)OC(CN1CCN(C)CC1)CN1C(=O)C2CC=CCC2C1=O` (stereo not drawn) [Compound J, N-{2-n-Caproyloxy-3-(4-methylpiperazin-1-yl)propyl}cis-cyclohex-4-ene-1,2-dicarboximide dimaleate] were, in that order, 0%, 21% and 32%.
Consider `O=C(OC(CN1CCN(c2ccccn2)CC1)CN1C(=O)[C@@H]2[C@H](C1=O)[C@@H]1C=C[C@H]2C1)C1CCCCC1` (stereo partly drawn) [Example 7, N-[2-Cyclohexylcarbonyloxy-3-{4-(2-pyridyl)piperazin-1-yl}propyl]-endo-cis-bicyclo[2,2,1]hept-5-ene-2,3-dicarboximide dihydrochloride], for which, in the data set on sub-diabetic rats (39 mg/kg, 6 rats, after 1 hour, method similar to Experiment 1), the “Improvement percent of glucose tolerance after 1 hour” value stood at 23%. Also, in the data set on sub-diabetic rats (39 mg/kg, 6 rats, after 2 hours, method similar to Experiment 1), the “Improvement percent of glucose tolerance after 2 hours” value came to 33%. The “Improvement percent of glucose tolerance after 3 hours” value in the data set on sub-diabetic rats (39 mg/kg, 6 rats, after 3 hours, method similar to Experiment 1) was 37%.
